# “Also recorded” adds a separate entry of the source.
# Key:
# N. gonorrhoeae strains = assay: Well diffusion assay; format: cell-based, Neisseria gonorrhoeae; details: 100 pM to 100 μM in wells, overnight
# Experimental: Well diffusion assays were performed essentially as described previously ([56]). Briefly, N. gonorrhoeae strains were spread uniformly across the surfaces of GC agar plates at a culture density of 10^7 bacteria per ml. Wells were then punctured within the agar surface to which carbamazepine or methyldopa (100 pM to 100 μM), 0.2 μg/ml ceftriaxone, 10 μg/ml ciprofloxacin, or 1% DMSO (vehicle control) was added. Following an overnight incubation (37°C, 5% CO2), inhibition of N. gonorrhoeae growth was measured as the diameter (in millimeters) of the area of clearing surrounding (and inclusive of) each well on each agar plate, i.e., the zone of inhibition (ZOI). For agar plates in which a ZOI was not visible, data were recorded as the diameter of the well (6 mm). Assays were performed in triplicates on 3 separate occasions. Statistical significance of data obtained was determined using a Student's t test.
# human rI-domain [1] = biological target: T1, human rI-domain (Homo sapiens, UniProt P11215); assay: Direct competition SPR, drug versus N. gonorrhoeae MS11 pilin; format: binding; details: drug and pilin at 1 μM
# T1 construct: Recombinant human and mouse I-domain proteins were made and purified as previously described; made in house
# [2] = test system: N. gonorrhoeae adherence to CHO-neo cells; assay: Fluorometric adherence assay, CHO-neo cells; format: cell-based, Chinese hamster; details: 1-h infection; cells do not express CR3
# Experimental: (§1) Fluorometric adherence assays were performed essentially as described previously ([36]). In brief, N. gonorrhoeae MS11 gfp was used to challenge (1 h) Pex or CHO cells simultaneously with peptide or drug competitor. Infected (devoid of peptide or drug) and uninfected (with peptide, drug, or dimethyl sulfoxide [DMSO] vehicle) control cell assays were treated in parallel with competitive peptide/drug inhibition assays. Fluorescence (485 nm excitation, 528 nm emission) intensity, corresponding to bacterial adherence, was recorded using a Synergy HT multimode microplate reader (BioTek Instruments, Winooski, VT, USA). Blank wells, devoid of Pex or CHO cells, were inoculated with bacteria and served as a control for nonspecific binding. Each assay was performed in triplicates on 3 separate occasions. Peptides used are described in Table S1. A nonparametric analysis of variance (ANOVA) was used to determine the statistical significance of the calculated mean of bacterial adherence.
# [3] = test system: N. gonorrhoeae adherence to Pex cells; assay: Fluorometric adherence assay, Pex cells; format: cell-based, human; details: 1-h infection with GFP-expressing N. gonorrhoeae, competitor added simultaneously
# Experimental: as §1
# [4] = test system: N. gonorrhoeae infection of Pex cells
# Experimental: Infection studies were performed as previously described with modification using a multiplicity of infection of 100 ([44]). To establish infection before treatment, Pex cells were challenged with N. gonorrhoeae for 90 min. The infection medium was then removed, the cells were rinsed thrice, and fresh medium containing 0.1% DMSO (vehicle control), carbamazepine (100 pM to 100 μM), methyldopa (100 pM to 100 μM), or ceftriaxone (0.1 μg/ml or 0.5 μg/ml, positive control) was added. Infections then proceeded for an additional 24 h or 48 h, after which, the infection medium was removed. Pex cell monolayers were subsequently lysed, serial dilutions of the Pex cell lysates were plated, and viable gonococci were enumerated by counting CFU after 48 h of incubation (37°C, 5% CO2). For sequential infection assays, viable bacterial colonies that survived a treatment assay were harvested from the enumeration (CFU) plates and used to inoculate new Pex cell monolayers. For these sequential assays, each infection (the original infection or the infection with bacteria that had survived the original infection) proceeded for 24 h. Pex cells were then processed, and bacteria were enumerated, as described above. For all assays, the percentage of N. gonorrhoeae that survived carbamazepine, methyldopa, or ceftriaxone treatment was determined as a function of bacteria that survived DMSO treatment (set to 100%). All assays were performed in triplicates on 3 separate occasions. A nonparametric ANOVA was used to determine the statistical significance of bacterial survival.
# [5] = test system: N. gonorrhoeae adherence to CHO-CR3 cells; assay: Fluorometric adherence assay, CHO-CR3 cells; format: cell-based, Chinese hamster; details: 1-h infection with GFP-expressing N. gonorrhoeae, competitor added simultaneously
# Experimental: as §1
# [6] = orally administered, prescribed use; cited from earlier work
# human rI-domain [7] = biological target: T1, human rI-domain; assay: Repurposed drug SPR against human CR3 I-domain (single-cycle kinetics); details: 10 nM to 0.625 nM, read-out: KD, binding to human rI-domain
# Experimental: Human rI-domain was immobilized onto a CM5 sensor chip with a blank control flow cell as described above. A combination of two FDA-approved drug libraries, Microsource-CPOZ (2,400 drugs) and ML Drug (741 drugs), was purchased from Compounds Australia. […] A single-concentration injection screen (yes/no) binding assay was performed. Binding was determined based on the response unit shift (equal to the molecular weight-corrected response units of the positive-control glycan) of the stability of the binding phase of the dissociation cycle. […] For carbamazepine and methyldopa, saturation occurred between 1.6 nM and 8 nM, and so a new concentration range (10 nM to 0.625 nM) was tested. […] All SPR sensorgrams and result plots described above were analyzed with Biacore S200 evaluation software (GE Healthcare Life Sciences). A literature review was used to evaluate the remaining drugs for known long-term safety in humans and known therapeutic concentrations.
# T1 sequence (P11215 150-328 limits assumed): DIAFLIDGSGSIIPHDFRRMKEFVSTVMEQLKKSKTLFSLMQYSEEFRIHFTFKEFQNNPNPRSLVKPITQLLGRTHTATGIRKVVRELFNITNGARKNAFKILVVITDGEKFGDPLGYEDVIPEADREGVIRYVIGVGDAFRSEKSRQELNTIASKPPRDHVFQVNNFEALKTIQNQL
smiles,measurement,setting,value
NC(=O)N1c2ccccc2C=Cc2ccccc21 [carbamazepine],Effect on gonococcal viability in the absence of Pex cells (zone of inhibition),N. gonorrhoeae strains,neither carbamazepine nor methyldopa had an effect; also recorded: no effect
same,Blocking of the interaction of N. gonorrhoeae MS11 pilin with rCR3 or rI-domain,human rI-domain [1],completely blocked
same,Gonococcal adherence to CHO-neo cells (fluorescence),[2],no effect; also recorded: but not to CHO-neo cells
same,Gonococcal adherence to Pex cells (fluorescence),[3],dose-dependent decrease; also recorded: decreased in a dose-dependent manner
same,N. gonorrhoeae strain MS11 survival,"[4]; 24 h posttreatment, 100 pM to 100 μM",dose-dependent reductions
same,"Numbers of viable gonococci, low-passage-number gonococcal isolates","[4]; 24 h posttreatment, established Pex cell infections",significant reductions
same,Killing of survivor population in second sequential infection,"[4]; bacteria harvested from a 24-h treated infection, re-used and treated again for 24 h",100%
same,Efficacy in treating multidrug-resistant gonococci compared with ceftriaxone,[4]; panel of multidrug-resistant N. gonorrhoeae isolates,more effective than ceftriaxone
same,Gonococcal adherence to CHO-CR3 cells (fluorescence),[5],dose-dependent decrease; also recorded: decreased in a dose-dependent manner
same,Concentration in serum,[6],~17 µM
same,Kd,human rI-domain [7],2.12 nM
